The structures appear in SMILES notation.

Test [1] has as its system subjects (humans) with T2DM. Nature of the test: Phase 2 dose-ranging study of API-2, 12 weeks of treatment. To be noted: Target population (Baseline 8-11%). The class given is in vivo, human. The method, then:
A Phase 2 study was designed as a randomized, double-blind, placebo controlled, dose-ranging, parallel group study evaluating the efficacy and safety following 12 weeks of treatment with API-2 in subjects (humans) with T2DM. The study was conducted in 2 parts: Part A and Part B. Part A and Part B were identical except for the dose levels administered. In Part A, subjects received one of two treatments administered orally for 12 weeks: API-2 400 mg QD (n=51) or matching placebo (n=26). In Part B, subjects received one of three treatments administered orally for 12 weeks: API-2 200 mg QD (n=28), API-2 800 mg QD (n=56), or matching placebo (n=26).

Test [2] has as its system subjects (humans) with type 2 diabetes. Nature of the test: Phase 2 clinical study of API-1, 12 weeks of treatment, on stable metformin. The class given is in vivo, human. To be noted: for placebo-subtracted decrease from baseline in HbA1c (%): p<0.001. The method, then:
A Phase 2 clinical study was designed as a randomized, double-blind, placebo- controlled, parallel-group multi-center study evaluating the efficacy and safety following 12 weeks of treatment with API-1 in subjects (humans) with type 2 diabetes who were being treated with a stable dose of metformin. Subjects were randomly assigned to one of three treatment groups, API-1 150 mg BID, API-1 150 mg QPM, or placebo with approximately n=52/group. A total of approximately 156 patients were to be randomized into this study and 174 were ultimately randomized. Subjects were enrolled and randomized according to a fixed randomization scheme blocked by study investigative site. Severity of diabetes was determined by HbA1c measures (7.5% to 10%) at screening, confirmed at Baseline, and HbA1c was used as a stratification variable in the randomization scheme: HbA1c less than 8% and 8% or more. Randomization was to be a balanced allocation (1:1:1) among the three treatment groups. Dropouts were not to be replaced. Statistical analyses for topline results included placebo-subtracted change from baseline (LSM-CFB) for HbA1c (primary endpoint) and body weight (secondary endpoint) as well as a post hoc concentration/effect analysis to evaluate the effect of exposure on efficacy.

The mark [3] stands for this setting: 150 mg once daily (QPM) arm, Week 12, completers, 2.2 mg/kg to 1.0 mg/kg.
The mark [4] stands for this setting: 150 mg twice daily (BID) arm, Week 12, completers, 2.2 mg/kg to 4.8 mg/kg.

On to `CC[C@@H](c1ccccc1)N1Cc2cc3c(cc2C[C@H]1C(=O)N[C@@H](Cc1ccc(-c2ccc(C#N)cc2)cc1)C(=O)O)N(C)C(=O)[C@@H](c1ccc(OCc2ccc(Cl)c(Cl)c2)cc1)O3` [API-2, (S)-3-(4′-cyano-biphenyl-4-yl)-2-{[(3R,7S)-3-[4-(3,4-dichlorobenzyloxy)-phenyl]-1-methyl-2-oxo-6-((S)-1-phenyl-propyl)-2,3,5,6,7,8-hexahydro-1H-4-oxa-1,6-diaza-anthracene-7-carbonyl]-amino}-propionic acid], for which the “Mean Change from Baseline in HbA1c (%)” value is reported as −0.37% in test [1] (group 1.4-2.7 mg/kg (<2.7), Week 4); −0.69% in test [1] (group 1.4-2.7 mg/kg (<2.7), Week 8); −0.79% in test [1] (group 1.4-2.7 mg/kg (<2.7), Week 12); −0.47% in test [1] (group 2.8-4.0 mg/kg, Week 4); −0.86% in test [1] (group 2.8-4.0 mg/kg, Week 8); −1.09% in test [1] (group 2.8-4.0 mg/kg, Week 12). For the same molecule, the “Mean Change from Baseline in HbA1c (%)” value is −0.36% in test [1] (group 4.1-5.0 mg/kg, Week 4); −0.78% in test [1] (group 4.1-5.0 mg/kg, Week 8); −0.85% in test [1] (group 4.1-5.0 mg/kg, Week 12); −0.26% in test [1] (group 5.1-12.4 mg/kg (>5.0), Week 4); −0.34% in test [1] (group 5.1-12.4 mg/kg (>5.0), Week 8); −0.34% in test [1] (group 5.1-12.4 mg/kg (>5.0), Week 12).
Turning to `CC[C@@H](c1ccccc1)N1Cc2cc3c(cc2C[C@H]1C(=O)N[C@@H](Cc1ccc(-c2ccnc(C)c2C)cc1)C(=O)O)OC[C@H](c1ccc(OCc2ccc(Cl)c(Cl)c2)cc1)O3.Cl.Cl` [API-1, (S)-2-{[(3S,8S)-3-[4-(3,4-dichloro-benzyloxy)-phenyl]-7-((S)-1-phenyl-propyl)-2,3,6,7,8,9-hexahydro-[1,4]dioxino[2,3-g]isoquinoline-8-carbonyl]-amino}-3-[4-(2,3-dimethyl-pyridin-4-yl)-phenyl]-propionic acid hydrochloride (1:2)], the “placebo-subtracted decrease from baseline in HbA1c (%)” value in test [2] (150 mg once daily (QPM) arm, 12 weeks) came to 0.9±0.2%; in test [2] (150 mg twice daily (BID) arm, 12 weeks) it was 0.7±0.2%. Further, the “dose (mg/kg) response of change from baseline in FPG (FIG. 3)” value in test [2] (setting [3]) was “increased as the dose was reduced”. In test [2] (setting [3]), the “dose (mg/kg) response of change from baseline in HbA1c (FIG. 1)” value was “increased as the dose was reduced”. In addition, the “weight loss (average)” value in test [2] (150 mg once daily arm, 12 weeks, p=0.08) was determined as 0.9 kg; in test [2] (150 mg twice daily arm, 12 weeks), 0.6 kg. Moreover, in test [2] (setting [4]), the “dose (mg/kg) response of change from baseline in FPG (FIG. 4)” value is listed as “almost unchanged”. The “dose (mg/kg) response of change from baseline in HbA1c (FIG. 2)” value in test [2] (setting [4]) is “almost unchanged”. The “Mean Change from Baseline HbA1c (%)” value is −0.57% in test [2] (group 1-1.35 mg/kg (<1.35), Week 4); −1.26% in test [2] (group 1-1.35 mg/kg (<1.35), Week 8); −1.71% in test [2] (group 1-1.35 mg/kg (<1.35), Week 12); −0.35% in test [2] (group 1.35-1.64 mg/kg, Week 4); −0.85% in test [2] (group 1.35-1.64 mg/kg, Week 8); −0.90% in test [2] (group 1.35-1.64 mg/kg, Week 12). Moreover, the “Mean Change from Baseline HbA1c (%)” value in test [2] (group 1.65-1.75 mg/kg, Week 4) is −0.21%; in test [2] (group 1.65-1.75 mg/kg, Week 8), −0.51%; in test [2] (group 1.65-1.75 mg/kg, Week 12) it was −0.75%; in test [2] (group 1.76-2.2 mg/kg (>1.75), Week 4), −0.31%; in test [2] (group 1.76-2.2 mg/kg (>1.75), Week 8), −0.43%; in test [2] (group 1.76-2.2 mg/kg (>1.75), Week 12), −0.55%. Besides, the “placebo-subtracted decrease from baseline in fasting plasma glucose” value in test [2] (once daily arm, 12 weeks) is recorded as “about 16 mg/dL”; in test [2] (twice daily arm, 12 weeks), around 17 mg/dL. Further, the “reduction from baseline in HbA1c” value in test [2] (patients dosed with lower than 1.35 mg/kg, 12 weeks, p<0.01) was determined as 1.7%. The “reduction from baseline in body weight” value in test [2] (patients dosed with lower than 1.35 mg/kg, 12 weeks, p<0.05) is 3.7 kg.
